Test results published in publication PMC9862409 (Pharmaceutics, 2023).
≈ marks a conversion by molar mass, not a printed value.

What was measured:
[1] = In vitro drug release, dialysis bag diffusion method; assay type: physicochemical; conditions: after 6 h; PBS pH 7.4, 37 °C
Experimental: The dissolution medium was phosphate buffer saline (PBS) (pH 7.4), which mimics physiological pH. […] Aliquots of 3 mL were taken from the dissolution medium at predefined time points at 0.5, 1, 2, 3, 4, 5, 6, 7, 8, 10, 12, 24, 36, and finally at 48 h. The sink conditions were maintained by immediately replenishing the equivalent volume of fresh PBS (pH 7.4) after each aliquot withdrawal. […] The study was performed in triplicate and was graphically presented as the cumulative percentage of drug release versus time. Data from the in vitro drug release study was further analyzed using different kinetic models to determine the drug release pattern.
Statistical analysis of in vitro drug release kinetic models was carried out using one-way analysis of variance (ANOVA) followed by Tukey’s Multiple Comparison post hoc test; p ≤ 0.05. […] Analyses were done using GraphPad Prism 6.01 (San Diego, CA, USA).

Staphylococcus aureus = assay: MIC by broth microdilution method; assay type: cell-based; conditions: Staphylococcus aureus (ATCC® 25922)
Experimental: (§1) The MIC was determined by the broth microdilution method. […] Stock solutions were serially diluted (2-fold) in sterile Müeller Hinton broth (MHB) with a dilution range of 0.125 to 150 µg/mL. Overnight culture turbidity was adjusted equivalent to the 0.5 McFarland standard and then diluted to give a final concentration equivalent to 10^6 CFU/mL [30]. One hundred microliters of the adjusted bacterial culture were added to an equal volume of the tested dilutions in a 96-well microtiter plate. The plates were then incubated at 37 °C for 24 h.
(§2) The MIC was recorded as the lowest concentration of an antimicrobial agent, which gave no visible growth. […] The experiment was conducted in triplicate. The mean as well as standard deviation were recorded.

[2] = system: methicillin-resistant Staphylococcus aureus (MRSA); assay: MIC by broth microdilution method; assay type: cell-based
Experimental: as §1, §2

human leukocyte elastase = target: T1, human leukocyte elastase (Homo sapiens, UniProt P08246); assay: Anti-elastase assay; assay type: biochemical
T1 construct: purchased Nawah Scientific Inc., Cairo, Egypt
T1 sequence (P08246 30-267): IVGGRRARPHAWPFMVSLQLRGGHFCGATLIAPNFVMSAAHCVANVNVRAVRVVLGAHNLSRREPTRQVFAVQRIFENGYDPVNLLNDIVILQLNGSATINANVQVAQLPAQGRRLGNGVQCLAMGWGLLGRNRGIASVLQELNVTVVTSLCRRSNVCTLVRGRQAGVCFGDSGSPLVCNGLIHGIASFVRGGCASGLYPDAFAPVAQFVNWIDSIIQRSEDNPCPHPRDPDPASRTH
Experimental: The anti-elastase, anti-collagenase, and anti-tyrosinase activities were assessed following the method reported by Mostafa et al. [32]. […] For the anti-elastase assay, human leukocyte elastase (1 µg/mL) was incubated with N-2-hydroxyethylpiperazine-N-2-ethane sulfonic acid (HEPES) buffer (pH 7.5). Each of the tested samples or the standard inhibitor N-Methoxysuccinyl-Ala-Ala-Pro-chloromethyl ketone (1.4 mg/mL) was added into the 96-well plate for 20 min at 25 °C before the addition of 100 µL substrate of 1 mM N-Methoxysuccinyl-Ala-Ala-Pro-Val-p-nitroanilide. Afterward, the optical density was measured after 40 min of incubation at 405 nm against a blank well lacking the test sample/inhibitor. Various concentrations of the tested samples (25–300 µg/mL) were used.
Moreover, in vitro skin-related enzyme inhibitory assays were carried out in triplicates, and results were expressed as mean ± standard deviation. A non-linear regression curve was used to calculate IC50. An unpaired t-test was used for statistical comparison between the two groups. p < 0.05 is considered statistically significant. […]

[3] = target: collagenase type 1 from Clostridium histolyticum; assay: Anti-collagenase assay; assay type: biochemical; conditions: +ve control = EDTA
Experimental: For the anti-collagenase, collagenase type 1 from Clostridium histolyticum (1 mg/mL) buffer (pH 7.4) along with tested samples or standard inhibitor ethylenediamine tetraacetic acid (EDTA) (1.4 mg/mL) were incubated at 37 °C for 20 min prior to the addition of 100 µL of the substrate 2-furanacryloyl-l-leucylglycyl-l-prolyl-l-alanine (FALGPA). The mixture was then incubated at 37 °C for an additional 1 h before the addition of 200 µL of 2% ninhydrin in 200 mM citrate buffer (pH 5) and placed in a water bath for 5 min. Afterward, the solution was left to cool down completely. Afterwards 200 µL of 50% isopropanol was added, and the optical densities were analyzed at 540 nm. Various concentrations of the tested samples (25–300 µg/mL) were used.

mushroom tyrosinase = assay: Anti-tyrosinase assay; assay type: biochemical
Experimental: For the anti-tyrosinase assay, mushroom tyrosinase (5600 units/mL) was incubated at 37 °C for 15 min along with tested samples or standard inhibitor kojic acid (1.4 mg/mL) before the addition of the substrate 1 mM L-DOPA. Afterward, the optical density of the formed dopachrome was analyzed at 475 nm. Various concentrations of the tested samples (75–500 µg/mL) were used. All tests were conducted in triplicate. The enzyme inhibition activity was expressed in percentage using the following equation: (5) Enzyme inhibition activity %=Optical density of control – Optical density of sample/Optical density of control×100
Statistical analysis of in vitro drug release kinetic models was carried out using one-way analysis of variance (ANOVA) followed by Tukey’s Multiple Comparison post hoc test; p ≤ 0.05. Moreover, in vitro skin-related enzyme inhibitory assays were carried out in triplicates, and results were expressed as mean ± standard deviation. A non-linear regression curve was used to calculate IC50. An unpaired t-test was used for statistical comparison between the two groups. p < 0.05 is considered statistically significant. Analyses were done using GraphPad Prism 6.01 (San Diego, CA, USA).

RBCs = conditions: cited from earlier work
[4] = susceptible ≤4 µg/mL, resistant ≥8 µg/mL

SMILES: CC(=O)NC[C@H]1CN(c2ccc(N3CCOCC3)c(F)c2)C(=O)O1 [LNZ, Linezolid]
- percentage LNZ released [1]: ~98 ± 0.5%
- MIC (Staphylococcus aureus; ATCC25922, 37 °C, 24 h, read-out: Minimum Inhibitory Concentration (MIC)): 4 µg/mL (≈ 11.9 µM)
- Minimum Inhibitory Concentration (MIC) (Staphylococcus aureus; 37 °C, 24 h): 4 ± 0.00 µg/mL
- susceptibility class (CLSI breakpoints) (Staphylococcus aureus; [4]): S (S: sensitive)
- Minimum Inhibitory Concentration (MIC) ([2]; 37 °C, 24 h): 4 ± 0.00 µg/mL
- MIC ([2]; Staphylococcus aureus, 37 °C, 24 h, read-out: Minimum Inhibitory Concentration (MIC)): 4 µg/mL (≈ 11.9 µM)
- susceptibility class (CLSI breakpoints) [2, 4]: S (S: sensitive)
- IC50 (human leukocyte elastase; +ve control = N-Methoxysuccinyl-Ala-Ala-Pro-chloromethyl ketone, read-out: Anti-Elastase IC50 (µg/mL) (converted)): 170 µM
- Anti-Elastase % Inhibition (human leukocyte elastase; samples tested 25–300 µg/mL, concentration of this value not stated, +ve control = N-Methoxysuccinyl-Ala-Ala-Pro-chloromethyl ketone (1.4 mg/mL)): 88.00 ± 1.35%
- Anti-Collagenase IC50 [3]: 335.34 ± 2.09 µg/mL
- Anti-Tyrosinase IC50 (mushroom tyrosinase; +ve control = kojic acid): 363.50 ± 2.08 µg/mL
- Anti-Tyrosinase % Inhibition (mushroom tyrosinase; samples tested 75–500 µg/mL, concentration of this value not stated, +ve control = kojic acid (1.4 mg/mL)): 65.00 ± 1.63%
- hemolysis percentage (RBCs): 14%
